The values that follow are results of earlier work, collected in patent US8815833B2, “Stable amifostine liquid concentrate” (Seidose, LLC, priority 2006, dated 2014).

The conditions of this data set: cited from earlier work.

Turning to `NCCCNCCSP(=O)(O)O` [amifostine trihydrate], the crystallization of solution entry (about 200 mg/ml solution in water stored at refrigerated conditions) is “substantial crystallization results”. Besides, where the note is “ambient conditions”, the “aqueous solubility in water” value is “about 200 mg/ml”.
